{
  "source": "patent US20230107642A1",
  "about": "(Erasca, Inc., priority 2020, published 2023)",
  "data": [
    {"biological_target": "T1, K-Ras G12C (Homo sapiens, UniProt P01116, G12C)", "T1 construct": "This protein contained 188 amino acids in total, including an N-terminal 6-Histidine tag; made in house; host or cells: E. coli BL21", "test": "CAF assay (% CAF; method in Example 7, not in this part)", "type": "binding", "settings": "10 uM compound, 1 h incubation", "units": {"% CAF @ 10 uM, 1h": "%"}, "values": [
      {"smiles": "C=CC(=O)N1CCN(c2nc(=O)n3c4c(c(-c5ccc(F)cc5)c(C(F)(F)F)cc24)SC[C@@H]3CC2CCN(CC(F)F)CC2)[C@@H](C)C1", "note": "[Example 428, (S)-7-((S)-4-acryloyl-2-methylpiperazin-1-yl)-3-((1-(2,2-difluoroethyl)piperidin-4-yl)methyl)-10-(4-fluorophenyl)-9-(trifluoromethyl)-2H-[1,4]thiazino[2,3,4-ij]quinazolin-5(3H)-one]", "% CAF @ 10 uM, 1h": 79.6},
      {"smiles": "C=CC(=O)N1C[C@H](C)N(c2nc(=O)n3c4c(c(-c5ccc(F)cc5F)c(C(F)(F)F)cc24)SC[C@@H]3COCCOC)C[C@H]1C", "note": "(atropisomer, axis not shown) [Example 510, (3S,10S)-7-((2S,5R)-4-acryloyl-2,5-dimethylpiperazin-1-yl)-10-(2,4-difluorophenyl)-3-((2-methoxyethoxy)methyl)-9-(trifluoromethyl)-2,3-dihydro-5H-[1,4]thiazino[2,3,4-ij]quinazolin-5-one]", "% CAF @ 10 uM, 1h": 72.9},
      {"smiles": "C=CC(=O)N1[C@H](C)CN(c2nc(=O)n3c4c(c(-c5cc(F)c(F)cc5F)c(Cl)cc24)SC[C@@H]3COC)C[C@@H]1C", "note": "[Example 506, (3S)-7-((3S,5R)-4-acryloyl-3,5-dimethylpiperazin-1-yl)-9-chloro-3-(methoxymethyl)-10-(2,4,5-trif1uorophenyl)-2,3-dihydro-5H-[1,4]thiazino[2,3,4-ij]quinazolin-5-one]", "% CAF @ 10 uM, 1h": 17.5},
      {"smiles": "CN(C)C/C=C/C(=O)N1C2CC(=O)CC1CN(c1nc(=O)n3c4c(c(-c5ccc(F)cc5F)c(C(F)(F)F)cc14)SCC3)C2", "note": "[Example 420, (E)-10-(2,4-difluorophenyl)-7-(9-(4-(dimethylamino)but-2-enoyl)-7-oxo-3,9-diazabicyclo[3.3.1]nonan-3-yl)-9-(trifluoromethyl)-2,3-dihydro-5H-[1,4]thiazino[2,3,4-ij]quinazolin-5-one]", "% CAF @ 10 uM, 1h": 93},
      {"smiles": "C=CC(=O)N1CCN(c2nc(=O)n3c4c(c(-c5ccc(F)cc5)c(Cl)cc24)SC[C@H](OC)C3)[C@@H](C)C1", "note": "[Example 528, (R)-8-((S)-4-acryloyl-2-methylpiperazin-1-yl)-10-chloro-11-(4-fluorophenyl)-3-methoxy-3,4-dihydro-2H,6H-[1,4]thiazepino[2,3,4-ij]quinazolin-6-one]", "% CAF @ 10 uM, 1h": 98},
      {"smiles": "C/C=C/C(=O)N1C2CC(=O)CC1CN(c1nc(=O)n3c4c(c(-c5ccc(F)cc5F)c(C(F)(F)F)cc14)SCC3)C2", "note": "[Example 452, (E)-7-(9-(but-2-enoyl)-7-oxo-3,9-diazabicyclo[3.3.1]nonan-3-yl)-10-(2,4-difluorophenyl)-9-(trifluoromethyl)-2,3-dihydro-5H-[1,4]thiazino[2,3,4-ij]quinazolin-5-one]", "% CAF @ 10 uM, 1h": 63},
      {"smiles": "C=CC(=O)N1CCN(c2nc(=O)n3c4c(c(-c5cc(Cl)c(F)cc5F)c(Cl)cc24)SC[C@@H]3COCOC)[C@@H](C)C1", "note": "[Example 446, (3S)-7-((S)-4-acryloyl-2-methylpiperazin-1-yl)-9-chloro-10-(5-chloro-2,4-difluorophenyl)-3-((methoxymethoxy)methyl)-2H-[1,4]thiazino[2,3,4-ij]quinazolin-5(3H)-one]", "% CAF @ 10 uM, 1h": 38},
      {"smiles": "C=CC(=O)N1CCN(c2nc(=O)n3c4c(c(-c5ccc(F)cc5F)c(C(F)(F)F)cc24)SC[C@@H]3COC)[C@@H](C)C1", "note": "[Example 435, (3S)-7-((S)-4-acryloyl-2-methylpiperazin-1-yl)-10-(2,4-difluorophenyl)-3-(methoxymethyl)-9-(trifluoromethyl)-2H-[1,4]thiazino[2,3,4-ij]quinazolin-5(3H)-one]", "% CAF @ 10 uM, 1h": 95.8},
      {"smiles": "C=CC(=O)N1C[C@H](C)N(c2nc(=O)n3c4c(c(-c5cc(F)c(F)cc5F)c(Cl)cc24)SC[C@@H]3CN2CCC3(CC2)COC3)C[C@H]1C", "note": "[Example 460]", "% CAF @ 10 uM, 1h": 79.7}
    ]},
    {"biological_target": "T1, K-Ras G12C", "test": "CAF assay (% CAF; method in Example 7, not in this part)", "type": "binding", "settings": "10 uM, 1 h; Table 3", "units": {"% CAF @ 10 uM, 1h": "%"}, "values": [
      {"smiles": "C=C(F)C(=O)N1CCN(c2nc(=O)n3c4c(c(-c5ccc(F)cc5F)c(Cl)cc24)SCC3)C[C@@H]1CC#N", "note": "[Example 176, 2-((2S)-4-(9-chloro-10-(2,4-difluorophenyl)-5-oxo-2,3-dihydro-5H-[1,4]thiazino[2,3,4-ij]quinazolin-7-yl)-1-(2-fluoroacryloyl)piper-azin-2-yl)acetonitrile]", "% CAF @ 10 uM, 1h": 40.5},
      {"smiles": "C=CC(=O)N1C2CN(c3nc(=O)n4c5c(c(-c6ccc(F)cc6F)c(Cl)cc35)SCC4)CC1CS(=O)(=O)C2", "note": "[Example 84, 7-(9-acryloyl-3,3-dioxido-3-thia-7,9-diazabicyclo[3.3.1]nonan-7-yl)-9-chloro-10-(2,4-difluorophenyl)-2,3-dihydro-5H-[1,4]thiazino[2,3,4-ij]quinazolin-5-one]", "% CAF @ 10 uM, 1h": 43.8},
      {"smiles": "C[C@H]1CN(C(=O)/C=C/C(F)(F)F)CCN1c1nc(=O)n2c3c(c(-c4c(F)cc(F)cc4F)c(Cl)cc13)SCC2", "note": "[Example 111, (S,E)-9-chloro-7-(2-methyl-4-(4,4,4-trifluorobut-2-enoyl)piperazin-1-yl)-10-(2,4,6-trifluorophenyl)-2,3-dihydro-5H-[1,4]thiazino[2,3,4-ij]quinazolin-5-one]", "% CAF @ 10 uM, 1h": 95.2},
      {"smiles": "C=CC(=O)N1CCN(c2nc(=O)n3c4c(c(-c5ccc(F)cc5F)c(Cl)cc24)SCC3)[C@@H](C#N)C1", "note": "[Example 173, (2R)-4-acryloyl-1-(9-chloro-10-(2,4-difluorophenyl)-5-oxo-2,3-dihydro-5H-[1,4]thiazino[2,3,4-ij]quinazolin-7-yl)piperazine-2-carbonitrile]", "% CAF @ 10 uM, 1h": 2.2},
      {"smiles": "C=CC(=O)N1CCN(c2nc(=O)n3c4c(c(-c5ccc(F)cc5F)c(Cl)cc24)SCC3)C2COCC21", "note": "(centres unmarked) [Example 134, 7-(4-acryloylhexahydro-furo[3,4-b]pyrazin-1(2H)-yl)-9-chloro-10-(2,4-difluorophenyl)-2,3-dihydro-5H-[1,4]thiazino[2,3,4-ij]quinazolin-5-one]", "% CAF @ 10 uM, 1h": 85},
      {"smiles": "C[C@H]1CN(C(=O)/C=C/C(F)(F)F)CCN1c1nc(=O)n2c3c(c(-c4ccc(F)cc4F)c(Cl)cc13)SCC2", "note": "[Example 112, 9-chloro-10-(2,4-difluorophenyl)-7-((S)-2-methyl-4-((E)-4,4,4-trifluorobut-2-enoyl)piperazin-1-yl)-2,3-dihydro-5H-[1,4]thiazino[2,3,4-ij]quinazolin-5-one]", "% CAF @ 10 uM, 1h": 86.2}
    ]},
    {"biological_target": "T1, K-Ras G12C", "test": "CAF assay (% CAF; method in Example 7, not in this part)", "type": "binding", "settings": "10 μM, 1 h; Table 4", "units": {"% CAF @ 10 μM, 1 h": "%"}, "values": [
      {"smiles": "C=CC(=O)N1C2CC(=O)CC1CN(c1nc(=O)n3c4c(c(-c5ccc(F)cc5F)c(C(F)(F)F)cc14)OCCC3)C2", "note": "[Example 338, 8-(9-acryloyl-7-oxo-3,9-diazabicyclo[3.3.1]nonan-3-yl)-11-(2,4-difluorophenyl)-10-(trifluoromethyl)-3,4-dihydro-2H,6H-[1,4]oxazepino[2,3,4-ij]quinazolin-6-one]", "% CAF @ 10 μM, 1 h": 95.3},
      {"smiles": "C=CC(=O)N1CCN(c2nc(=O)n3c4c(c(-c5ccc(F)cc5F)c(Cl)cc24)SC[C@@H]3CCCN2C[C@@H]3C[C@H]2CO3)[C@@H](C)C1", "note": "[Example 342, (3S)-3-(3-((1S,4S)-2-oxa-5-azabicyclo[2.2.1]heptan-5-yl)propyl)-7-((S)-4-acryloyl-2-methylpiperazin-1-yl)-9-chloro-10-(2,4-difluorophenyl)-2H-[1,4]thiazino[2,3,4-ij]quinazolin-5(3H)-one]", "% CAF @ 10 μM, 1 h": 94.7}
    ]}
  ]
}
